From patent publication US6461997B1, “Triazole sulfones having herbicidal activity” (Monsanto Technology LLC, priority 1999, dated 2002)

Assays:
[1] = system: AEGCY (jointed goatgrass); test: Post-emergence herbicidal activity, cool season; type: in vivo, Aegilops cylindrica; conditions: abraded plants sprayed at 300, 100, 30 and 10 g/ha; about 14 days after treatment
Outline: (§1)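 Greenhouse-grown seedlings were abraded 9–14 days after planting, then sprayed at 300, 100, 30 and 10 g/ha in acetone:water (3,100 l/ha). Grown at 18/13 °C day/night, percent inhibition versus abraded unsprayed controls was scored about 14 days after treatment and GR80 assigned.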

[2] = system: AGSST (creeping bentgrass); test: Post-emergence herbicidal activity, cool season; type: in vivo, Agrostis stolonifera; conditions: abraded plants sprayed at 300, 100, 30 and 10 g/ha; about 14 days after treatment
Outline: as §1

[3] = system: DIGSA (large crabgrass); test: Pre-plant incorporated (PPI) herbicidal activity, warm season; type: in vivo, Digitaria sanguinalis; conditions: for PPI activity GR80, DIGSA: pre-plant incorporated, lowest tested rate with 80% or greater inhibition, about 14 days
Procedure: (§2) In another set of tests, the pre-plant incorporated (PPI) activity of compounds of this invention was evaluated on the same species as for the pre-emergence tests described above. In the PPI tests the following procedure, designed to simulate PPI application, was used.
(§3) A pre-prepared topsoil mixture (described above) was placed in a pot and compacted to a depth of 1.0 to 1.25 cm from the top of the pot. Seeds of each of several monocotyledonous and dicotyledonous annual plant species were placed on top of the soil. A sufficient quantity of soil to cover the seeds and level fill the pot was weighed into an open container. A known amount of the test compound was dissolved or suspended in an organic solvent and applied by spraying to this cover soil. The cover soil was thoroughly mixed to distribute the test compound throughout the cover soil, and was then applied as a cover layer over the seeds. Untreated soil was used as a cover layer for control pots. After treatment the plants were placed in a greenhouse where they received 0.64 cm of overhead irrigation. All subsequent watering consisted of a light overhead mist and/or subirrigation as needed for germination and growth. Tables 9 and 10 below relate to warm season plant species which were placed after pre-emergence treatment in a greenhouse with a 30/21° C. day/night temperature regime. Tables 11 and 12 below relates to cool season plant species placed after pre-emergence treatment in a greenhouse or growth chamber with an 18/13° C. day/night temperature regime. Only the compounds of Examples 1, 6, 8, 11, 13 and 15-20 were included in PPI tests.
(§4) Approximately 14 days after planting and treating, the plants were observed and herbicidal efficacy recorded as percent inhibition by comparison with untreated plants.

[4] = system: LAMPU (purple deadnettle); test: Pre-emergence herbicidal activity, cool season; type: in vivo, Lamium purpureum; conditions: lowest tested rate with 80% or greater inhibition; rates 300, 100, 30, 10 g/ha; about 14 days
Outline: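 Seeds sown in sterilised fertilised topsoil received surface-applied compound in 50:50 acetone/water, typically at 300, 100, 30 and 10 g/ha, then greenhouse-grown at 30/21° C (warm-season species) or 18/13° C (cool-season species). Percent inhibition versus untreated plants was scored at about 14 days, giving GR80; an asterisk marks activity short of 80% at the top rate.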

[5] = system: PANDI (fall panicum); test: Pre-plant incorporated (PPI) herbicidal activity, warm season; type: in vivo, Panicum dichotomiflorum; conditions: for Percent inhibition PANDI: PPI application; for PPI activity GR80, PANDI: pre-plant incorporated, lowest tested rate with 80% or greater inhibition, about 14 days
Procedure: as §2, §3, §4

[6] = system: VERPE (creeping speedwell); test: Pre-plant incorporated (PPI) herbicidal activity, cool season; type: in vivo, Veronica persicaria; conditions: for PPI activity GR80, VERPE: pre-plant incorporated, lowest tested rate with 80% or greater inhibition, about 14 days
Procedure: as §2, §3, §4

[7] = system: ALOMY (blackgrass); test: Pre-emergence herbicidal activity, cool season; type: in vivo, Alopecurus myosuroides; conditions: GR80 = lowest tested rate (300, 100, 30, 10 g/ha) with 80% or greater inhibition; approx. 14 days after treating; 18/13° C.
Outline: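 Herbicidal efficacy was judged visually as percent inhibition compared with untreated plants some 14 days after treatment, giving GR80 over doses of 10 to 300 g/ha. Proso millet and crabgrass grew at 30/21 °C; blackgrass and wild buckwheat grew at 18/13 °C.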

[8] = system: AGSST (creeping bentgrass); test: Pre-plant incorporated (PPI) herbicidal activity, cool season; type: in vivo, Agrostis stolonifera; conditions: for PPI activity GR80, AGSST: pre-plant incorporated, lowest tested rate with 80% or greater inhibition, about 14 days
Procedure: as §2, §3, §4

[9] = system: AVEFA (wild oat); test: Post-emergence herbicidal activity, cool season; type: in vivo, Avena fatua; conditions: abraded plants sprayed at 300, 100, 30 and 10 g/ha; about 14 days after treatment
Outline: as §1

[10] = weed, PPI application, 100 g/ha
[11] = weed, PPI application, 300 g/ha
[12] = weed, PPI application, 900 g/ha

SMILES: CCN(CC)C(=O)n1cnc(S(=O)(=O)C(F)(F)SCC(=O)OC)n1 [Example 11]
- Post-emergence activity GR80, AEGCY [1]: [empty]
- Post-emergence activity GR80, AGSST [2]: [empty]
- Percent inhibition DIGSA ([3]; PPI application, 10 g/ha): 0%
- Percent inhibition DIGSA ([3]; PPI application, 30 g/ha): 0%
- Percent inhibition DIGSA ([3]; PPI application, 100 g/ha): 70%
- Percent inhibition DIGSA ([3]; PPI application, 300 g/ha): 90%
- Percent inhibition DIGSA ([3]; PPI application, 900 g/ha): 100%
- PPI activity GR80, DIGSA [3]: 300 g/ha
- Pre-emergence activity GR80, LAMPU [4]: 100 g/ha
- Percent inhibition PANDI ([5]; 10 g/ha): 0%
- Percent inhibition PANDI ([5]; 30 g/ha): 0%
- Percent inhibition PANDI ([5]; 100 g/ha): 70%
- Percent inhibition PANDI ([5]; 300 g/ha): 99%
- Percent inhibition PANDI ([5]; 900 g/ha): 100%
- PPI activity GR80, VERPE [6]: [empty]
- Percent inhibition VERPE ([6]; weed, PPI application, 10 g/ha): 90%
- Percent inhibition VERPE ([6]; weed, PPI application, 30 g/ha): 90%
- Percent inhibition VERPE [6, 10]: 100%
- Percent inhibition VERPE [6, 11]: 100%
- Percent inhibition VERPE [6, 12]: 100%
- Pre-emergence activity (GR80) ALOMY [7]: 300 g/ha
- PPI activity GR80, AGSST [8]: 300 g/ha
- Percent inhibition AGSST ([8]; weed, PPI application, 10 g/ha): 60%
- Percent inhibition AGSST ([8]; weed, PPI application, 30 g/ha): 50%
- Percent inhibition AGSST [8, 10]: 60%
- Percent inhibition AGSST [8, 11]: 90%
- Percent inhibition AGSST [8, 12]: 100%
- Post-emergence activity GR80, AVEFA [9]: [empty]

SMILES: CCN(CC)C(=O)n1cnc(S(=O)(=O)C(F)(F)SCCOC)n1 [Example 13]
- Post-emergence activity GR80, AEGCY [1]: [empty]
- Post-emergence activity GR80, AGSST [2]: [empty]
- Percent inhibition DIGSA ([3]; PPI application, 10 g/ha): 0%
- Percent inhibition DIGSA ([3]; PPI application, 30 g/ha): 75%
- Percent inhibition DIGSA ([3]; PPI application, 100 g/ha): 100%
- Percent inhibition DIGSA ([3]; PPI application, 300 g/ha): 100%
- Percent inhibition DIGSA ([3]; PPI application, 900 g/ha): 100%
- PPI activity GR80, DIGSA [3]: 30 g/ha
- Pre-emergence activity GR80, LAMPU [4]: 100 g/ha
- Percent inhibition PANDI ([5]; 10 g/ha): 40%
- Percent inhibition PANDI ([5]; 30 g/ha): 100%
- Percent inhibition PANDI ([5]; 100 g/ha): 90%
- Percent inhibition PANDI ([5]; 300 g/ha): 100%
- Percent inhibition PANDI ([5]; 900 g/ha): 100%
- PPI activity GR80, PANDI [5]: 30 g/ha
- PPI activity GR80, VERPE [6]: 100 g/ha
- Percent inhibition VERPE ([6]; weed, PPI application, 10 g/ha): 75%
- Percent inhibition VERPE ([6]; weed, PPI application, 30 g/ha): 100%
- Percent inhibition VERPE [6, 10]: 100%
- Percent inhibition VERPE [6, 11]: 100%
- Percent inhibition VERPE [6, 12]: 100%
- Pre-emergence activity (GR80) ALOMY [7]: 300 g/ha
- PPI activity GR80, AGSST [8]: 30 g/ha
- Percent inhibition AGSST ([8]; weed, PPI application, 10 g/ha): 60%
- Percent inhibition AGSST ([8]; weed, PPI application, 30 g/ha): 95%
- Percent inhibition AGSST [8, 10]: 100%
- Percent inhibition AGSST [8, 11]: 100%
- Percent inhibition AGSST [8, 12]: 100%
- Post-emergence activity GR80, AVEFA [9]: [empty]

SMILES: C=CCC(F)(F)S(=O)(=O)c1ncn(C(=O)N(CC)CC)n1 [Example 17, 1-(N,N-diethylcarbamoyl)-3-[(1,1-difluoro-3-butenyl)sulfonyl]-1,2,4-triazole]
- Post-emergence activity GR80, AEGCY [1]: [empty]
- Post-emergence activity GR80, AGSST [2]: 300 g/ha
- inhibition at 10 g/ha ([3]; Digitaria sanguinalis, PPI application, 10 g/ha, read-out: Percent inhibition DIGSA): 60%
- inhibition at 30 g/ha ([3]; Digitaria sanguinalis, PPI application, 30 g/ha, read-out: Percent inhibition DIGSA): 80%
- inhibition at 100 g/ha ([3]; Digitaria sanguinalis, PPI application, 100 g/ha, read-out: Percent inhibition DIGSA): 80%
- inhibition at 300 g/ha ([3]; Digitaria sanguinalis, PPI application, 300 g/ha, read-out: Percent inhibition DIGSA): 80%
- inhibition at 900 g/ha ([3]; Digitaria sanguinalis, PPI application, 900 g/ha, read-out: Percent inhibition DIGSA): 100%
- PPI activity GR80, DIGSA [3]: 30 g/ha
- Pre-emergence activity GR80, LAMPU [4]: 100 g/ha
- PPI activity GR80, PANDI [5]: 300 g/ha
- PPI activity GR80, VERPE [6]: 10 g/ha
- inhibition at 10 g/ha ([6]; weed, PPI application, 10 g/ha, read-out: Percent inhibition VERPE): 0%
- inhibition at 30 g/ha ([6]; weed, PPI application, 30 g/ha, read-out: Percent inhibition VERPE): 0%
- inhibition at 100 g/ha ([6]; weed, PPI application, 100 g/ha, read-out: Percent inhibition VERPE): 0%
- inhibition at 300 g/ha ([6]; weed, PPI application, 300 g/ha, read-out: Percent inhibition VERPE): 90%
- inhibition at 900 g/ha ([6]; weed, PPI application, 900 g/ha, read-out: Percent inhibition VERPE): 100%
- Pre-emergence activity (GR80) ALOMY [7]: 100 g/ha
- inhibition at 10 g/ha ([8]; Agrostis stolonifera, weed, PPI application, 10 g/ha, read-out: Percent inhibition AGSST): 70%
- inhibition at 30 g/ha ([8]; Agrostis stolonifera, weed, PPI application, 30 g/ha, read-out: Percent inhibition AGSST): 95%
- inhibition at 100 g/ha ([8]; Agrostis stolonifera, weed, PPI application, 100 g/ha, read-out: Percent inhibition AGSST): 95%
- inhibition at 300 g/ha ([8]; Agrostis stolonifera, weed, PPI application, 300 g/ha, read-out: Percent inhibition AGSST): 100%
- inhibition at 900 g/ha ([8]; Agrostis stolonifera, weed, PPI application, 900 g/ha, read-out: Percent inhibition AGSST): 100%
- PPI activity GR80, AGSST [8]: 10 g/ha
- Post-emergence activity GR80, AVEFA [9]: [empty]
